The source of these data is ChEMBL document CHEMBL4376861, “Docking Finds GPCR Ligands in Dark Chemical Matter” (J Med Chem, 2020).

The target in assay [1] is T1, Adenosine receptor A1 (Homo sapiens) (UniProt P30542).
T1 sequence (whole entry): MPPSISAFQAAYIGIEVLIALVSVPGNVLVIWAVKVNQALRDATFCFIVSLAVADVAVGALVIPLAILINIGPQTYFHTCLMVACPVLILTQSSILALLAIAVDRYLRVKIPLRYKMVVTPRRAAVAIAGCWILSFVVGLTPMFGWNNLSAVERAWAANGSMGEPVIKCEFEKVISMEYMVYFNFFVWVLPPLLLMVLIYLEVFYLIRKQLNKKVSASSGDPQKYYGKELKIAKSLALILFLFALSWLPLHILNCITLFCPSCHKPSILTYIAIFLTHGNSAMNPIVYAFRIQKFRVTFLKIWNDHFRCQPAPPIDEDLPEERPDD
Nature of the assay: Displacement of [3H]DPCPX from human adenosine […] receptor expressed in […] cell membranes at 10 uM incubated for 60 mins by scintillation counting method relative to control. Background: Loss of bound radioactivity is the signal in a displacement assay; it reports binding, not function.

The target of assay [2] is T2, D(3) dopamine receptor (Homo sapiens, UniProt P35462). The assay can be described thus: Displacement of [3H]spiperone from human dopamine D3 receptor expressed in cell membranes incubated for 60 mins by scintillation counting method.
T2 sequence (P35462 whole entry): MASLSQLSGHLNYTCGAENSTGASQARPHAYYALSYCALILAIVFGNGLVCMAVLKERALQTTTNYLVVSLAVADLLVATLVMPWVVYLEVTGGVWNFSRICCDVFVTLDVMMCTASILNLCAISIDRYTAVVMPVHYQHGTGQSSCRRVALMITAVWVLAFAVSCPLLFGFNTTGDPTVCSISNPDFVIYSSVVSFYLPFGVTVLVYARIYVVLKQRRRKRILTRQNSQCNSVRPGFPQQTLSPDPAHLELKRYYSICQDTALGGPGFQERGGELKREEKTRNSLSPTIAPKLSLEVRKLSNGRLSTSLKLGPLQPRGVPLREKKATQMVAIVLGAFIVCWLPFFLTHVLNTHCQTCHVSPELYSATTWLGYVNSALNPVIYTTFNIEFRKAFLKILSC
The next assay deals with T3, D(4) dopamine receptor (Homo sapiens, UniProt P21917).
T3 sequence (P21917 whole entry): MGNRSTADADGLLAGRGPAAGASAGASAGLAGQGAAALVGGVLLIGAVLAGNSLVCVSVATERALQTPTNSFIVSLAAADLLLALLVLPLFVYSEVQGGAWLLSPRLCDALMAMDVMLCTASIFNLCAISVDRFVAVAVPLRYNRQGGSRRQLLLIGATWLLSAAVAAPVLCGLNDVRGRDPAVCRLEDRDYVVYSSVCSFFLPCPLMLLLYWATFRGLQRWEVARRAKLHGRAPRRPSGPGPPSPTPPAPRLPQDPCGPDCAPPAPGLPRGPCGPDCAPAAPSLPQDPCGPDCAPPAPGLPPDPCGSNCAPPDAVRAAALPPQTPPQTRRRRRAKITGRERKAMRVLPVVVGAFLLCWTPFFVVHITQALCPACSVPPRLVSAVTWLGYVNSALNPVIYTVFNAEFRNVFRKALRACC
Nature of the assay: Displacement of [3H]spiperone from human dopamine D4 receptor expressed in cell membranes incubated for 60 mins by scintillation counting method.

Assay [3] addresses T4, Adenosine receptor A2a (Homo sapiens, UniProt P29274). Nature of the assay: Displacement of [3H]ZM241385 from adenosine A2A receptor in human HeLa cell membranes at 10 uM incubated for 30 mins by scintillation counting method relative to control.
The target of assay [4] is T4, Adenosine receptor A2a. Nature of the assay: Displacement of [3H]ZM241385 from adenosine A2A receptor in human HeLa cell membranes incubated for 30 mins by scintillation counting method.
For assay [5], the target named is T5, D(4) dopamine receptor (Homo sapiens) (UniProt P21917).
T5 sequence (whole entry): T3 sequence (P21917 whole entry)
The assay can be described thus: Displacement of [3H]spiperone from human dopamine D4 receptor expressed in cell membranes at 10 uM incubated for 60 mins by scintillation counting method relative to control.

Assay [6] addresses T2, D(3) dopamine receptor. Nature of the assay: Displacement of [3H]spiperone from human dopamine D3 receptor expressed in cell membranes at 10 uM incubated for 60 mins by scintillation counting method.
Another assay has as its target T6, Adenosine receptor A1 (Homo sapiens, UniProt P30542).
T6 sequence (P30542 whole entry): T1 sequence (whole entry)
Nature of the assay: Displacement of [3H]DPCPX from human adenosine […] receptor expressed in […] cell membranes incubated for 60 mins by scintillation counting method.

T4 sequence (P29274 whole entry): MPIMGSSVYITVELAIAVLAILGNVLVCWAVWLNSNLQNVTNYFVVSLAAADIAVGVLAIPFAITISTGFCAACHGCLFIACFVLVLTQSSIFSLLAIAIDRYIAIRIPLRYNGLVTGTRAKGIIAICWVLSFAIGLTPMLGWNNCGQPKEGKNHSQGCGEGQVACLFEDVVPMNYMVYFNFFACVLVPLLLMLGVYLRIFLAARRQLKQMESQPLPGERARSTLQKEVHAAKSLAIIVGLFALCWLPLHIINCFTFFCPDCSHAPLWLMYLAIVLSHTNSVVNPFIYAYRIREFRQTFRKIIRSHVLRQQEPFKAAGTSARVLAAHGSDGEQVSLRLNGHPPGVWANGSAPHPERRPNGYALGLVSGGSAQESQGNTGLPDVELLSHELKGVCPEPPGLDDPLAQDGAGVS

For orientation: inhibition means how much of the control response was suppressed. As a reminder, the Ki is the dissociation constant of the complex between target and ligand, obtained from inhibition or displacement. `Cc1ccc(C(=O)C2CCN(CC(=O)NC3CCCC3)CC2)cc1`: the inhibition amounted to 19% in assay [1] and 7% on Adenosine receptor A2a [3]. The Ki at D(3) dopamine receptor [2] was found to be 11000 nM; on D(4) dopamine receptor, 420 nM.
As to `Cc1cccc2cc(CNCc3ccccc3)c(Cl)nc12`, the inhibition (in assay [1]; at Adenosine receptor A2a [3]) was 13% in each case. Also, the Ki was determined as 1600 nM on D(3) dopamine receptor [2] and 550 nM on D(4) dopamine receptor.
Take `CCOC(=O)c1nc(N)c(=O)n(-c2ccccc2)n1`: the results for the Ki at Adenosine receptor A2a [4] and at Adenosine receptor A1 were 4900 nM and 2200 nM, respectively. Besides, the figures for the inhibition (in assay [5]; on D(3) dopamine receptor [6]) were 12% and 6%, respectively.
For the compound `Nc1nc(-c2ccccc2)nn1C(=O)c1ccco1`, the figures for the Ki on Adenosine receptor A2a [4] and on Adenosine receptor A1 were 130 nM and 36 nM, respectively. For the same compound, the inhibition in assay [5] is 7%; at D(3) dopamine receptor [6] it was 4%.
